Changes are numbered by the printed parent chain.
Assays:
Type in all cases: cell-based
[1] = target: T1, TauT (taurine transporter, SLC6A6; TauT^WT) (Homo sapiens, UniProt P31641); test: two-electrode voltage clamp in Xenopus laevis oocytes, taurine-induced inward current
T1 construct: wild-type TauT expressed in Xenopus laevis oocytes for electrophysiology; cryo-EM sample details only in supplement
T1 sequence (P31641 1-620): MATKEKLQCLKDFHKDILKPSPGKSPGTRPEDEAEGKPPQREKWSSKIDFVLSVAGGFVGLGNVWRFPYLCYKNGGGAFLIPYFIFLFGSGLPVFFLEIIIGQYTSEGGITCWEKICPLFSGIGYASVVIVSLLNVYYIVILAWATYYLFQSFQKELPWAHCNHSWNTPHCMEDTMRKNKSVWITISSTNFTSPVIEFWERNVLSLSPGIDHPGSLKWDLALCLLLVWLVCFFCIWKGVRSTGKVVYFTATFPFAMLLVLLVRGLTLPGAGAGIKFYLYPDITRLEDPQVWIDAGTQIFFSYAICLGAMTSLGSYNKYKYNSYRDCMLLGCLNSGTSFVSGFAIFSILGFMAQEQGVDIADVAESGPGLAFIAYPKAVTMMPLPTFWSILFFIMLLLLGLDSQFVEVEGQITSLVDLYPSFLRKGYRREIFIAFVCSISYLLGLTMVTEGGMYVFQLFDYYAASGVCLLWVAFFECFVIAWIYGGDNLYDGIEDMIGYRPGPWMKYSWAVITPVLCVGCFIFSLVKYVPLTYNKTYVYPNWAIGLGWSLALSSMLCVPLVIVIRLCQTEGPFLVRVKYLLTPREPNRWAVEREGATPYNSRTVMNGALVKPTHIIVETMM

[2] = target: T2, TauT (taurine transporter, SLC6A6) (Homo sapiens, UniProt P31641, E406T); test: Xenopus laevis oocytes, taurine-induced inward current
T2 construct: wild-type TauT expressed in Xenopus laevis oocytes for electrophysiology; cryo-EM sample details only in supplement
T2 sequence (P31641 1-620 E406T): T1 sequence (P31641 1-620) with E406T

[3] = target: T1, TauT (taurine transporter, SLC6A6; TauT^WT); test: Xenopus laevis oocytes, β-alanine-induced inward current

| Structure (SMILES) | EC50 [1] | EC50 [2] | EC50 [3] |
| --- | --- | --- | --- |
| NCCS(=O)(=O)O [taurine] | 2.9 µM | 50.3 µM |  |
| NCCC(=O)O [β-alanine] |  |  | 5.6 µM |
